These results are taken from US12351597B2, “Substituted biphenyl or phenylheteroaryl-mannosides as antagonists of FimH” (GLAXOSMITHKLINE INTELLECTUAL PROPERTY DEVELOPMENT LIMITED, priority 2019, dated 2025).

Where only a bound is given, the exact number is not on record here.

A short description of data set [1]: Rat pharmacokinetics (IV infusion 1 mg/kg, then PO 5 mg/kg; blood and urine). The settings on record: for PK DNAUC h * uM (DNAUC oral, dose normalized): PO 5 mg/kg, blood, AUC divided by dose in mg/kg; for bioavailability: male, Wistar Han, whole blood, oral bioavailability from dose-normalized AUC, PO 5 mg/kg vs IV infusion 1 mg/kg; for Ue % (Ue % po): percentage of oral dose eliminated unchanged in urine, or estimate from IV urinary % times oral bioavailability. It counts as in vivo, Male Wistar Han rats. The source says:
General Assays for Obtaining AUC Oral h*μm, % F, and Ue % PO Values
Male Wistar Han rats were purchased from Vital River Laboratory Animal Technology Co. Ltd (Beijing, China). The animals were approx. 6-8 weeks old with body weights of 200-300 g on the dosing date. The animals were housed in a 12-hour light/12-hour dark cycle environment and had free access to food and water. All animals were fed prior to dosing. Studies were approved by the Pharmaron Institutional Animal Care and Use Committee (IACUC).
Test article was administered as an intravenous infusion for 1 hour (1 mg/kg) at 5 mL/kg/h. After 48 h, animals received a single oral dose (5 mg/kg, free form) at a dose volume of 10 mL/kg, respectively. Blood samples were collected at various time points after IV infusion and PO administrations. Urine samples were collected at various time points after IV infusion and PO administrations (for some compounds).
Test article was dissolved in DMSO with vortexing and sonification to obtain a stock solution. An aliquot of the stock solution was mixed with 10% HP-β-CD in saline with vortexing to obtain a solution with concentration at 0.2 mg/mL of test article.
Test article was added into 1% Methyl Cellulose with vortexing and sonication to obtain a homogeneous suspension with concentration at 0.5 mg/mL of test article.
For IV infusion (1 mg/kg) administration, blood samples were collected from each animal at 0, 0.25, 0.5, 0.75, 1, 1.08, 1.25, 1.5, 1.75, 2, 3, 5, 8, 12, 24 hour post-dose.
For PO (5 mg/kg) administration, blood samples were collected from each animal at 0, 0.25, 0.5, 1, 1.5, 2, 3, 4, 6, 8, 12, 24 hour post-dose.
Blood samples (50 μL) were collected from each animal via jugular vein. These blood samples were placed into tubes containing K2EDTA. Whole blood was mixed with same volume of water and inverted several times. The blood samples were stored at −75±15° C. until analysis.
For IV infusion (1 mg/kg) administration, urine samples were collected from each animal at 0-4, 4-8, 8-12, 12-24 hour post-dose.
For PO (5 mg/kg) administration, urine samples were collected (for some compounds) from each animal at 0-4, 4-8, 8-12, 12-24 hour post-dose.
55 μL of standards, 55 μL of QC samples or 55 μL of unknown samples (50 μL of blood or urine with 5 μL 50% acetonitrile) were mixed to 200 μL of acetonitrile containing IS (dexamethasone) to precipitate proteins. Then the samples were vortexed for 30 sec. After centrifugation at 4° C., 4700 rpm for 30 min, and 5 μL of the supernatant was injected into the LC-MS/MS system for quantitative analysis.
Test article blood and urine concentrations for each animal following IV infusion at 1 mg/kg and PO at 5 mg/kg were used to calculate pharmacokinetic parameters by employing a non-compartmental analysis (Phoenix™ WinNonlin® 7.0). The linear trapezoidal algorithm was used for AUC calculation. • AUC oral h*uM: Area under the curve (AUC) of drug concentration in blood vs. time (units: h*μM) following oral administration • DNAUC Dose normalized area under the curve is calculate by divided the area under the curve divided by the dose in the mg/kg • % F: Oral bioavailability (%) derived from the ratio of dose-normalized AUC following PO and IV administration • Ue % PO: Percentage of oral dose eliminated unchanged in urine or an estimate of that parameter generated from using the percentage of the iv dose eliminated in the urine times the oral bioavailability Production Methods: […]

For a further data set, the target named is T1, FimH (Escherichia coli, UniProt Q1R2J4).
T1 construct: endogenous in cells; host or cells: E. coli UTI89 whole bacteria (piliated), with guinea pig red blood cells
Briefly: Hemagglutination inhibition assay (HAI). As to conditions: HAI titer / EC>90: concentration reducing bacterial agglutination of guinea pig red blood cells by >90%; UTI89 bacteria. Type of data set: cell-based. The text has this:
“HAI titer or EC>90” is that concentration of the FimH inhibitor/antagonist which reduces the bacterial agglutination of guinea pig red blood cells by greater than 90%.
The activities of the Examples 1-40 compounds above as FimH antagonists/inhibitors were obtained by the following assay(s), and values are provided in Table 1. The values not provided mean that the activities have not yet been tested.
Hemagglutination Inhibition Assay (HAI)
The hemagglutination inhibition (HAI) assay was performed with UTI89 bacteria and guinea pig red blood cells, as previously described (S. J. Hultgren, W. R. Schwan, A. J. Schaeffer, J. L. Duncan Infect. Immun. 1986, 54, 613-620 and Jarvis, C.; Han, Z.; Kalas, V.; Klein, R.; Pinkner, J. S.; Ford, B.; Binkley, J.; Cusumano, C. K.; Cusumano, Z.; Mydock-McGrane, L.; Hultgren, S. J.; Janetka, J. W., ChemMedChem 2016, 11, 367-373). Values not listed were not tested.

Consider `N#Cc1cc(F)cc(-c2cc(F)c(O[C@H]3O[C@H](CO)[C@@H](O)[C@H](O)[C@@H]3O)c(C(F)(F)F)c2)c1` [Example 6], for which, in data set [1], the “PK DNAUC h * uM (DNAUC oral, dose normalized)” value is given as ““+” (<01 h · μM)”. Besides, on FimH, the “HAI nM” value was ““++++” (<50)”.
Regarding `Cc1cc(-c2cnc(C3CC3)cn2)ccc1O[C@H]1O[C@H](CO)[C@@H](O)[C@H](O)[C@@H]1O` [Example 12], in data set [1], the “PK DNAUC h * uM (DNAUC oral, dose normalized)” value was ““++” (0.1 ≤ × ≤ 0.2h · μM)”; the bioavailability is above 30%; the “Ue % (Ue % po)” value is given as ““++” (0.5 ≤ × ≤ 5%)”. Besides, the “HAI nM” value on FimH was ““++++” (<50)”.
On to `Cc1cc(-c2ccnc(C(F)(F)F)n2)ccc1O[C@H]1O[C@H](CO)[C@@H](O)[C@H](O)[C@@H]1O` [Example 14], for which, in data set [1], the “PK DNAUC h * uM (DNAUC oral, dose normalized)” value was ““+” (<01 h · μM)”. Further, the “HAI nM” value on FimH is ““+++” (50-200)”.
As to `Cc1cc(-c2cnc(C(F)(F)F)cn2)ccc1O[C@H]1O[C@H](CO)[C@@H](O)[C@H](O)[C@@H]1O` [Example 1, (2R,3S,4S,5S,6R)-2-(Hydroxymethyl)-6-(2-methyl-4-(5-(trifluoromethyl)pyrazin-2-yl)phenoxy)tetrahydro-2H-pyran-3,4,5-triol], in data set [1], the “PK DNAUC h * uM (DNAUC oral, dose normalized)” value is ““+++” (>0.2 h · μM)”; the bioavailability is above 30%; the “Ue % (Ue % po)” value was ““+++” (>5%)”. In addition, the “HAI nM” value at FimH is listed as ““++++” (<50)”.
With `N#Cc1cncc(-c2cc(F)c(O[C@H]3O[C@H](CO)[C@@H](O)[C@H](O)[C@@H]3O)c(C(F)(F)F)c2)c1` [Example 38], the “PK DNAUC h * uM (DNAUC oral, dose normalized)” value in data set [1] is ““+” (<01 h · μM)”. The “HAI nM” value at FimH was ““++++” (<50)”.
For `Cc1cc(-c2cnc(C(F)(F)F)nc2)ccc1O[C@H]1O[C@H](CO)[C@@H](O)[C@H](O)[C@@H]1O` [Example 16] the same measures were ““++” (0.1 ≤ × ≤ 0.2h · μM)” and ““++++” (<50)”.
Regarding `OC[C@H]1O[C@H](Oc2c(F)cc(-c3ccc(C(F)(F)F)nc3)cc2C(F)(F)F)[C@@H](O)[C@@H](O)[C@@H]1O` [Example 35], the “PK DNAUC h * uM (DNAUC oral, dose normalized)” value in data set [1] is recorded as ““+” (<01 h · μM)”.
In the case of `Cc1cc(-c2cncc(C#N)c2)ccc1O[C@H]1O[C@H](CO)[C@@H](O)[C@H](O)[C@@H]1O` [Example 37], in data set [1], the “PK DNAUC h * uM (DNAUC oral, dose normalized)” value was ““+” (<01 h · μM)”. Besides, on FimH, the “HAI nM” value was ““++++” (<50)”.
Turning to `OC[C@H]1O[C@H](Oc2c(F)cc(-c3ccc(C(F)(F)F)cn3)cc2C(F)(F)F)[C@@H](O)[C@@H](O)[C@@H]1O` [Example 28], in data set [1], the “PK DNAUC h * uM (DNAUC oral, dose normalized)” value was ““+++” (>0.2 h · μM)” and the bioavailability lay in the range of 10 to 30%. Besides, the “HAI nM” value on FimH is reported as ““++++” (<50)”.
For `OC[C@H]1O[C@H](Oc2ccc(-c3cnc(C(F)(F)F)cn3)cc2C(F)(F)F)[C@@H](O)[C@@H](O)[C@@H]1O` [Example 3, (2R,3S,4S,5S,6R)-2-(Hydroxymethyl)-6-(2-(trifluoromethyl)-4-(5-(trifluoromethyl)pyrazin-2-yl)phenoxy)tetrahydro-2H-pyran-3,4,5-triol] the same measures were ““++” (0.1 ≤ × ≤ 0.2h · μM)”, 10 to 30% and ““+++” (50-200)”.
For `Cc1cc(-c2cc(F)cc(C#N)c2)ccc1O[C@H]1O[C@H](CO)[C@@H](O)[C@H](O)[C@@H]1O` [Example 4, 5-Fluoro-3′-methyl-4′-(((2R,3S,4S,5S,6R)-3,4,5-trihydroxy-6-(hydroxymethyl)tetrahydro-2H-pyran-2-yl)oxy)-[1,1′-biphenyl]-3-carbonitrile] the same measures were ““+++” (>0.2 h · μM)”, above 30% and ““+++” (50-200)”.
For `Cc1cc(-c2cc(C(F)(F)F)ccn2)ccc1O[C@H]1O[C@H](CO)[C@@H](O)[C@H](O)[C@@H]1O` [Example 5, (2R,3S,4S,5S,6R)-2-(hydroxymethyl)-6-(2-methyl-4-(4-(trifluoromethyl)pyridin-2-yl)phenoxy)tetrahydro-2H-pyran-3,4,5-triol] the same measures were ““+++” (>0.2 h · μM)”, above 30% and ““+++” (50-200)”.
With `Cc1cc(-c2cnc(N3CCCC3)cn2)ccc1O[C@H]1O[C@H](CO)[C@@H](O)[C@H](O)[C@@H]1O` [Example 7], the “PK DNAUC h * uM (DNAUC oral, dose normalized)” value in data set [1] is on record as ““+” (<01 h · μM)”. In addition, the “HAI nM” value at FimH is on record as ““++++” (<50)”.
Take `Cc1cc(-c2ccnc(C(F)(F)F)c2)ccc1O[C@H]1O[C@H](CO)[C@@H](O)[C@H](O)[C@@H]1O` [Example 24]: the “HAI nM” value at FimH is ““+++” (50-200)”.
Still for that read-out and setting: the value for `OC[C@H]1O[C@H](Oc2c(F)cc(-c3nccc(C(F)(F)F)n3)cc2C(F)(F)F)[C@@H](O)[C@@H](O)[C@@H]1O` [Example 36] was ““++++” (<50)”; that for `OC[C@H]1O[C@H](Oc2ccc(-c3cnc(C(F)(F)F)cn3)cc2Cl)[C@@H](O)[C@@H](O)[C@@H]1O` [Example 33] was ““+++” (50-200)”.
